For experiment [1], the target named is T1, Tyrosine-protein kinase ZAP-70 (Homo sapiens, UniProt P43403).
T1 sequence (P43403 whole entry): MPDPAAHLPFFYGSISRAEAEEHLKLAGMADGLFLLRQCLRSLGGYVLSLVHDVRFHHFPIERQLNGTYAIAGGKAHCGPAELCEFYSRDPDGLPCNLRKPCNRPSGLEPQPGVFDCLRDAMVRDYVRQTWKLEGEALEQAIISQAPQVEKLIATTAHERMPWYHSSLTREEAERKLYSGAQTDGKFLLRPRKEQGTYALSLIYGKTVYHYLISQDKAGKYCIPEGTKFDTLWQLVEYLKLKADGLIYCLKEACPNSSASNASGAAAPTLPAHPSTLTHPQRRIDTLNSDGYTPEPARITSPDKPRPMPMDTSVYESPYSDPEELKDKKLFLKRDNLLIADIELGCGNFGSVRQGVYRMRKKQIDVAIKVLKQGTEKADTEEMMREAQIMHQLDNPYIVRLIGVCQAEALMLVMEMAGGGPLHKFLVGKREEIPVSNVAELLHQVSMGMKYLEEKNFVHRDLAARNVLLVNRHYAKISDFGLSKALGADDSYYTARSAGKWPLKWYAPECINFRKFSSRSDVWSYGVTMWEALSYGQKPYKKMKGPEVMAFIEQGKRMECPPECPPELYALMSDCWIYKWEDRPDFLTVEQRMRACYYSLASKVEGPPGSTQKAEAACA
As to the kind of experiment: Inhibition of binding to human ZAP-70 SH2 domain.

Experiment [2] concerns the target Tyrosine-protein kinase Lck (Homo sapiens) (UniProt P06239). Kind of experiment: Compound was tested for its antagonistic activity at 100 uM concentration against SH2 domain of LCK protein. Format: functional.
For experiment [3], the target named is Growth factor receptor-bound protein 2 (Homo sapiens) (UniProt P62993). Kind of experiment: Antagonistic activity at 100 uM concentration against SH-2 domain of growth factor receptor binding protein (Grb2).

Where a SMILES comes first, the peptide text is derived from it. [ ]: non-standard residue; d: D form. The star is where a group is joined. Gly(N-Bn(4-CH2PO3H2)) = O=C(O)CNCc1ccc(CP(=O)(O)O)cc1; N(3-phenylpropyl)Gly = O=C(O)CNCCCc1ccccc1; Hexanoyl = CCCCCC(=O)*; Nleu = CC(C)CNCC(=O)O; NEtG = CCNCC(=O)O

Chain of Growth factor receptor-bound protein 2 (Homo sapiens) (P62993 whole entry, looked up): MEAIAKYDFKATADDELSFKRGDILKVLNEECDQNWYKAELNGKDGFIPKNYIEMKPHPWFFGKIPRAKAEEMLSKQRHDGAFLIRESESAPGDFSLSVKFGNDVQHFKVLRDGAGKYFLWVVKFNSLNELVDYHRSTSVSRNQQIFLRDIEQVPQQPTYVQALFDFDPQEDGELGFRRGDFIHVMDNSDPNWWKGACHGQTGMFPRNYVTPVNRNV
Chain of Tyrosine-protein kinase Lck (Homo sapiens) (P06239 2-509 limits assumed): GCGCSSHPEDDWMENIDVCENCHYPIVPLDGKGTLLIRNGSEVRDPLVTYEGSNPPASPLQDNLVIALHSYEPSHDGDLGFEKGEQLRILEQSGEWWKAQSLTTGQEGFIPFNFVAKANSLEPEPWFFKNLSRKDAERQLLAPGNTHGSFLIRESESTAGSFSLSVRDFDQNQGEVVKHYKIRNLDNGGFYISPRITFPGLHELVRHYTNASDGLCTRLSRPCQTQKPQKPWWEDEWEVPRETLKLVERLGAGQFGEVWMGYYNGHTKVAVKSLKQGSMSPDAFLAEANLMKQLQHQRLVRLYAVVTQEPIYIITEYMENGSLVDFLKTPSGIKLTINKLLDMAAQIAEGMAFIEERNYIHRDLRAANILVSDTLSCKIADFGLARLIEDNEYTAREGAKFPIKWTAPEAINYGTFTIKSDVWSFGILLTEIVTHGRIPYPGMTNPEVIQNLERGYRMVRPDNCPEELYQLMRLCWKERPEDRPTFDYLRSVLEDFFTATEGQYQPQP

The term IC50 denotes the concentration that gives 50% inhibition. Lower therefore signals greater potency in that assay. By inhibition is commonly meant the share of the control response that was lost under treatment. A higher inhibition goes with a strong effect. In the case of `CCCCCC(=O)N(CC(=O)N(CCCc1ccccc1)CC(=O)N(CC(=O)N(CCCc1ccccc1)CC(N)=O)CC(C)C)Cc1ccc(CP(=O)(O)O)cc1` (Hexanoyl-[Gly(N-Bn(4-CH2PO3H2))][N(3-phenylpropyl)Gly][Nleu][N(3-phenylpropyl)Gly]-NH2), in experiment [1], the IC50 was more than 100 µM. Further, the inhibition in experiment [2] and in experiment [3] was 32% each time.
Turning to `CCCCCC(=O)N(CC(=O)N(CC(=O)N(CC)CC(=O)N(CC)CC(N)=O)CC(C)C)Cc1ccc(CP(=O)(O)O)cc1` (Hexanoyl-[Gly(N-Bn(4-CH2PO3H2))][Nleu][NEtG][NEtG]-NH2), the inhibition in experiment [2] is 61%; in experiment [3], 15%.
On the same counts, the results for `CCCCCC(=O)N(CC(=O)N(CCCc1ccccc1)CC(=O)N(CCCc1ccccc1)CC(=O)N(CCCc1ccccc1)CC(N)=O)Cc1ccc(CP(=O)(O)O)cc1` (Hexanoyl-[Gly(N-Bn(4-CH2PO3H2))][N(3-phenylpropyl)Gly][N(3-phenylpropyl)Gly][N(3-phenylpropyl)Gly]-NH2) are 4% and 5%.
On the same counts, the results for `CCCCCC(=O)N(CC(=O)N(CC)CC(=O)N(CC(=O)N(CCCc1ccccc1)CC(N)=O)CC(C)C)Cc1ccc(CP(=O)(O)O)cc1` (Hexanoyl-[Gly(N-Bn(4-CH2PO3H2))][NEtG][Nleu][N(3-phenylpropyl)Gly]-NH2) are 15% and 2%.
Turning to `CCCCCC(=O)N(CC(=O)N(CC)CC(=O)N(CCCc1ccccc1)CC(=O)N(CC)CC(N)=O)Cc1ccc(CP(=O)(O)O)cc1` (Hexanoyl-[Gly(N-Bn(4-CH2PO3H2))][NEtG][N(3-phenylpropyl)Gly][NEtG]-NH2), the inhibition is 7% in experiment [2] and 8% in experiment [3].
On the same counts, the results for `CCCCCC(=O)N(CC(=O)N(CC(=O)N(CCCc1ccccc1)CC(=O)N(CC)CC(N)=O)CC(C)C)Cc1ccc(CP(=O)(O)O)cc1` (Hexanoyl-[Gly(N-Bn(4-CH2PO3H2))][Nleu][N(3-phenylpropyl)Gly][NEtG]-NH2) are 4% and 5%.
With `CCCCCC(=O)N(CC(=O)N(CCCc1ccccc1)CC(=O)N(CCCc1ccccc1)CC(=O)N(CC)CC(N)=O)Cc1ccc(CP(=O)(O)O)cc1` (Hexanoyl-[Gly(N-Bn(4-CH2PO3H2))][N(3-phenylpropyl)Gly][N(3-phenylpropyl)Gly][NEtG]-NH2), the inhibition in experiment [2] and in experiment [3] was 4% in each case.
As for `CCCCCC(=O)N(CC(=O)N(CCCc1ccccc1)CC(=O)N(CC)CC(=O)N(CC(N)=O)CC(C)C)Cc1ccc(CP(=O)(O)O)cc1` (Hexanoyl-[Gly(N-Bn(4-CH2PO3H2))][N(3-phenylpropyl)Gly][NEtG][Nleu]-NH2), the inhibition in experiment [2] worked out at 7%; in experiment [3], 3%.
The like results for `CCCCCC(=O)N(CC(=O)N(CCCc1ccccc1)CC(=O)N(CCCc1ccccc1)CC(=O)N(CC(N)=O)CC(C)C)Cc1ccc(CP(=O)(O)O)cc1` (Hexanoyl-[Gly(N-Bn(4-CH2PO3H2))][N(3-phenylpropyl)Gly][N(3-phenylpropyl)Gly][Nleu]-NH2) were, in that order, 6% and 3%.
As for `CCCCCC(=O)N(CC(=O)N(CCCc1ccccc1)CC(=O)N(CC(=O)N(CC)CC(N)=O)CC(C)C)Cc1ccc(CP(=O)(O)O)cc1` (Hexanoyl-[Gly(N-Bn(4-CH2PO3H2))][N(3-phenylpropyl)Gly][Nleu][NEtG]-NH2), the inhibition in experiment [2] is 5%; in experiment [3], 6%.
For `CCCCCC(=O)N(CC(=O)N(CCCc1ccccc1)CC(=O)N(CC(=O)N(CC(N)=O)CC(C)C)CC(C)C)Cc1ccc(CP(=O)(O)O)cc1` (Hexanoyl-[Gly(N-Bn(4-CH2PO3H2))][N(3-phenylpropyl)Gly][Nleu][Nleu]-NH2), the inhibition in experiment [2] was 16%; in experiment [3] it was 0%.
On the same counts, the results for `CCCCCC(=O)N(CC(=O)N(CCCc1ccccc1)CC(=O)N(CC)CC(=O)N(CC)CC(N)=O)Cc1ccc(CP(=O)(O)O)cc1` (Hexanoyl-[Gly(N-Bn(4-CH2PO3H2))][N(3-phenylpropyl)Gly][NEtG][NEtG]-NH2) are 4% and 5%.
For the compound `CCCCCC(=O)N(CC(=O)N(CC(=O)N(CC)CC(=O)N(CC(N)=O)CC(C)C)CC(C)C)Cc1ccc(CP(=O)(O)O)cc1` (Hexanoyl-[Gly(N-Bn(4-CH2PO3H2))][Nleu][NEtG][Nleu]-NH2), the inhibition in experiment [2] was 9%; in experiment [3], 30%.
As for `CCCCCC(=O)N(CC(=O)N(CC)CC(=O)N(CC)CC(=O)N(CC(N)=O)CC(C)C)Cc1ccc(CP(=O)(O)O)cc1` (Hexanoyl-[Gly(N-Bn(4-CH2PO3H2))][NEtG][NEtG][Nleu]-NH2), the inhibition in experiment [2] and in experiment [3] was 2% each time.
As for `CCCCCC(=O)N(CC(=O)N(CC)CC(=O)N(CC)CC(=O)N(CCCc1ccccc1)CC(N)=O)Cc1ccc(CP(=O)(O)O)cc1` (Hexanoyl-[Gly(N-Bn(4-CH2PO3H2))][NEtG][NEtG][N(3-phenylpropyl)Gly]-NH2), the inhibition in experiment [2] came out at 1%; in experiment [3], 4%.
The like results for `CCCCCC(=O)N(CC(=O)N(CC)CC(=O)N(CC(=O)N(CC(N)=O)CC(C)C)CC(C)C)Cc1ccc(CP(=O)(O)O)cc1` (Hexanoyl-[Gly(N-Bn(4-CH2PO3H2))][NEtG][Nleu][Nleu]-NH2) were, in that order, 6% and 8%.
For the compound `CCCCCC(=O)N(CC(=O)N(CC)CC(=O)N(CC(=O)N(CC)CC(N)=O)CC(C)C)Cc1ccc(CP(=O)(O)O)cc1` (Hexanoyl-[Gly(N-Bn(4-CH2PO3H2))][NEtG][Nleu][NEtG]-NH2), the values for the inhibition in experiment [2] and in experiment [3] were 0% and 2%, respectively.
As for `CCCCCC(=O)N(CC(=O)N(CC(=O)N(CCCc1ccccc1)CC(=O)N(CC(N)=O)CC(C)C)CC(C)C)Cc1ccc(CP(=O)(O)O)cc1` (Hexanoyl-[Gly(N-Bn(4-CH2PO3H2))][Nleu][N(3-phenylpropyl)Gly][Nleu]-NH2), the inhibition turned out to be 1% in experiment [2] and 3% in experiment [3].
On the same counts, the results for `CCCCCC(=O)N(CC(=O)N(CC(=O)N(CC(=O)N(CC)CC(N)=O)CC(C)C)CC(C)C)Cc1ccc(CP(=O)(O)O)cc1` (Hexanoyl-[Gly(N-Bn(4-CH2PO3H2))][Nleu][Nleu][NEtG]-NH2) are 1% and 4%.
The like results for `CCCCCC(=O)N(CC(=O)N(CC(=O)N(CC)CC(=O)N(CCCc1ccccc1)CC(N)=O)CC(C)C)Cc1ccc(CP(=O)(O)O)cc1` (Hexanoyl-[Gly(N-Bn(4-CH2PO3H2))][Nleu][NEtG][N(3-phenylpropyl)Gly]-NH2) were, in that order, 10% and 2%.
The like results for `CCCCCC(=O)N(CC(=O)N(CC(=O)N(CCCc1ccccc1)CC(=O)N(CCCc1ccccc1)CC(N)=O)CC(C)C)Cc1ccc(CP(=O)(O)O)cc1` (Hexanoyl-[Gly(N-Bn(4-CH2PO3H2))][Nleu][N(3-phenylpropyl)Gly][N(3-phenylpropyl)Gly]-NH2) were, in that order, 3% and 0%.
Consider `CCCCCC(=O)N(CC(=O)N(CC)CC(=O)N(CCCc1ccccc1)CC(=O)N(CCCc1ccccc1)CC(N)=O)Cc1ccc(CP(=O)(O)O)cc1` (Hexanoyl-[Gly(N-Bn(4-CH2PO3H2))][NEtG][N(3-phenylpropyl)Gly][N(3-phenylpropyl)Gly]-NH2), for which the inhibition in experiment [2] was found to be 0%; in experiment [3], 2%.
As to `CCCCCC(=O)N(CC(=O)N(CC(=O)N(CC(=O)N(CC(N)=O)CC(C)C)CC(C)C)CC(C)C)Cc1ccc(CP(=O)(O)O)cc1` (Hexanoyl-[Gly(N-Bn(4-CH2PO3H2))][Nleu][Nleu][Nleu]-NH2), the inhibition in experiment [2] was 3%; in experiment [3] it was 6%.
`CCCCCC(=O)N(CC(=O)N(CC)CC(=O)N(CCCc1ccccc1)CC(=O)N(CC(N)=O)CC(C)C)Cc1ccc(CP(=O)(O)O)cc1` (Hexanoyl-[Gly(N-Bn(4-CH2PO3H2))][NEtG][N(3-phenylpropyl)Gly][Nleu]-NH2): the inhibition in experiment [2] came to 3%; in experiment [3] it was 4%.
For the compound `CCCCCC(=O)N(CC(=O)N(CCCc1ccccc1)CC(=O)N(CC)CC(=O)N(CCCc1ccccc1)CC(N)=O)Cc1ccc(CP(=O)(O)O)cc1` (Hexanoyl-[Gly(N-Bn(4-CH2PO3H2))][N(3-phenylpropyl)Gly][NEtG][N(3-phenylpropyl)Gly]-NH2), in experiment [1], the IC50 is more than 100 µM. Besides, the inhibition in experiment [2] is 4%; in experiment [3] it was 20%.
With `CCCCCC(=O)N(CC(=O)N(CC)CC(=O)N(CC)CC(=O)N(CC)CC(N)=O)Cc1ccc(CP(=O)(O)O)cc1` (Hexanoyl-[Gly(N-Bn(4-CH2PO3H2))][NEtG][NEtG][NEtG]-NH2), the inhibition in experiment [2] was determined as 4%; in experiment [3], 6%.
The like results for `CCCCCC(=O)N(CC(=O)N(CC(=O)N(CC(=O)N(CCCc1ccccc1)CC(N)=O)CC(C)C)CC(C)C)Cc1ccc(CP(=O)(O)O)cc1` (Hexanoyl-[Gly(N-Bn(4-CH2PO3H2))][Nleu][Nleu][N(3-phenylpropyl)Gly]-NH2) were, in that order, 1% and 5%.

The values above are taken from ChEMBL document CHEMBL1130753, “Solid phase synthesis of a biased mini tetrapeptoid-library for the discovery of monodentate ITAM mimics as ZAP-70 inhibitors” (Bioorg Med Chem Lett, 1998).
